In assay [1] the test system is primary human T-cells. Put plainly: Proliferation assay after 5 days (CellTiter-Glo, CD3 stimulation; PBS counter screen). It is filed as cell-based. The note with it: CD3 stimulation; for Emax / Emax proliferation (% activation): 5 days, normalized to reference compound A1 as stimulator control = 100%, DMSO neutral control; for Emax: read-out: Emax proliferation (% activation); for pEC50: primary human T-cells, CellTiter-Glo after 5 days, EC50 of fitted sigmoidal curve, read-out: Tcell Proliferation CD3 EC50. As for the experimental part:
Compounds are then added (see next section) to medium only plates.
Cells are assessed for proliferation 5 days later by measuring […] using CellTiterGlo (Promega).
After 5 days, for detection of ATP which is directly proportional to the number of cells present per well, the CellTiter-Glo® 2.0 Reagent is used. After visual control for toxicity or precipitations of the tested compounds, the plates are equilibrated to room temperature for 45 minutes. CellTiter-Glo® 2.0 Reagent is equilibrated to room temperature as well. After equilibration, an equal amount of CellTiter-Glo reagent is added to the cells (80 μl/well) with an electronic multichannel pipette. Plates are placed on a rocking platform for 15 minutes at room temperature. After incubation, the bottom of the plates is sealed with backing tape. Luminescence is measured with PHERAstar FSX (interval time 0.5 sec, gain 3000, focal height 15 mm) and exported as CSV file for analysis in Genedata screener.
Compounds which activate unstimulated cells (see IL2 measurements) or compounds which negatively affected viability were flagged.
In general terms: In ATP-based viability assays light output follows the ATP content of the culture.

For assay [2], the system named is primary human T-cells.

pEC50: −log10 of the molar value. Like-named read-outs stand apart in the source and are kept apart here.

Data on 19 molecules can be found in patent publication US20240368150A1 (Hoffmann-La Roche Inc., priority 2021, published 2024).

On to `N[C@H]1CS(=O)(=O)c2cc(F)c(-c3noc(C4(N)COC4)n3)cc2N(Cc2ccc(OC(F)(F)F)cc2)C1=O` [Example 333, (3R)-3-amino-7-[5-(3-aminooxetan-3-yl)-1,2,4-oxadiazol-3-yl]-8-fluoro-1,1-dioxo-5-[[4-(trifluoromethoxy)phenyl]methyl]-2,3-dihydro-1lambda6,5-benzothiazepin-4-one], for which, in assay [1] (Homo sapiens, T-cell, 120 h), the Emax was 94% and the pEC50 is 5.91. In addition, the pEC50 in assay [2] was 6.15.

On to `CS(=O)(=O)N1CC2CC2(c2nnc(-c3cc4c(cc3F)S(=O)(=O)C[C@H](N)C(=O)N4Cc3ccc(Cl)cc3)o2)C1` (stereo partly drawn) [Example 181, (3R)-3-amino-5-[(4-chlorophenyl)methyl]-8-fluoro-7-[5-(3-methylsulfonyl-3-azabicyclo[3.1.0]hexan-1-yl)-1,3,4-oxadiazol-2-yl]-1,1-dioxo-2,3-dihydro--benzothiazepin-4-one], for which, in assay [1] (Homo sapiens, T-cell, 120 h), the Emax is 107% and the pEC50 was 5.11. The molecule also showed a pEC50 in assay [2] of 5.70.

As to `CC1(C)CNCC(c2nc(-c3cc4c(cc3F)S(=O)(=O)C[C@H](N)C(=O)N4Cc3ccc(Cl)cc3)no2)C1` (stereo partly drawn) [Example 302, (3R)-3-amino-5-[(4-chlorophenyl)methyl]-7-[5-(5,5-dimethyl-3-piperidyl)-1,2,4-oxadiazol-3-yl]-8-fluoro-1,1-dioxo-2,3-dihydro-1λ^6,5-benzothiazepin-4-one], the Emax in assay [1] (Homo sapiens, T-cell, 120 h) turned out to be 76%. Further, the pEC50 in assay [1] (Homo sapiens, T-cell, 120 h) is 6.00; in assay [2], below 5.00.

As to `CN1CC(c2nnc(-c3cc4c(cc3F)S(=O)(=O)C[C@H](N)C(=O)N4Cc3ccc(Cl)cc3)o2)CC(F)(F)C1` (stereo partly drawn) [Example 153, (3R)-3-amino-5-[(4-chlorophenyl)methyl]-7-[5-(5,5-difluoro-1-methyl-3-piperidyl)-1,3,4-oxadiazol-2-yl]-8-fluoro-1,1-dioxo-2,3-dihydro-1λ^6,5-benzothiazepin-4-one], the “Emax proliferation (% activation)” value in assay [1] is given as 150 % activation. Besides, the pEC50 in assay [1] (Homo sapiens, T-cell, 120 h) was 6.95; in assay [2] it was 6.61.

Turning to `COC(=O)N1CC(c2nnc(-c3cc4c(cc3F)S(=O)(=O)C[C@H](N)C(=O)N4Cc3ccc(Cl)cc3)o2)C1` [Example 172, methyl 3-[5-[(3R)-3-amino-5-[(4-chlorophenyl)methyl]-8-fluoro-1,1,4-trioxo-2,3-dihydro-1λ^6,5-benzothiazepin-7-yl]-1,3,4-oxadiazol-2-yl]azetidine-1-carboxylate], the Emax in assay [1] (Homo sapiens, T-cell, 120 h) was 190%. The pEC50 in assay [1] (Homo sapiens, T-cell, 120 h) was 5.53; in assay [2], 5.78.

Consider `CC1(c2nnc(-c3cc4c(cc3F)S(=O)(=O)C[C@H](N)C(=O)N4Cc3ccc(Cl)cc3)o2)CCOCC1` [Example 92, (3R)-3-amino-5-[(4-chlorophenyl)methyl]-8-fluoro-7-[5-(4-methyltetrahydropyran-4-yl)-1,3,4-oxadiazol-2-yl]-1,1-dioxo-2,3-dihydro-1λ^6,5-benzothiazepin-4-one], for which, in assay [1] (Homo sapiens, T-cell, 120 h), the Emax was 141% and the pEC50 was 6.71. The same molecule had a pEC50 in assay [2] of 6.84.

For `CC(C)(C)c1nnc(-c2cc3c(cc2F)S(=O)(=O)C[C@H](N)C(=O)N3Cc2ccc(Cl)cc2)s1` [Example 508, (3R)-3-amino-7-(5-tert-butyl-1,3,4-thiadiazol-2-yl)-5-[(4-chlorophenyl)methyl]-8-fluoro-1,1-dioxo-2,3-dihydro-1λ^6,5-benzothiazepin-4-one], in assay [1] (Homo sapiens, T-cell, 120 h), the Emax was 110% and the pEC50 is 6.40. In assay [2], this molecule had a pEC50 of 6.34.

Consider `N[C@H]1C[S+]([O-])c2ccc(-c3nnc(CC(F)(F)F)o3)cc2N(Cc2ccc(OC(F)(F)F)cc2)C1=O` (single isomer, unassigned; epimer b) [Example 428], for which, in assay [1], the “Emax proliferation (% activation)” value stood at 38 % activation and the pEC50 is 5.48. The molecule further showed a pEC50 in assay [2] of 5.80.

For the molecule `N[C@H]1CS(=O)(=O)c2cc(F)c(-c3noc(C4(C(F)(F)F)CC4)n3)cc2N(Cc2ccc(OC(F)(F)F)cc2)C1=O` [Example 344, (3R)-3-amino-8-fluoro-1,1-dioxo-5-[[4-(trifluoromethoxy)phenyl]methyl]-7-[5-[1-(trifluoromethyl)cyclopropyl]-1,2,4-oxadiazol-3-yl]-2,3-dihydro-1λ^6,5-benzothiazepin-4-one], the Emax in assay [1] (Homo sapiens, T-cell, 120 h) came to 120%. For the same molecule, the pEC50 is 7.16 in assay [1] (Homo sapiens, T-cell, 120 h) and 6.33 in assay [2].

With `CNC(C)(C)c1nnc(-c2ccc3c(c2)N(Cc2ccc(OC(F)(F)F)cc2)C(=O)[C@@H](N)CS3(=O)=O)o1` [Example 419, (3R)-3-amino-7-[5-[1-methyl-1-(methylamino)ethyl]-1,3,4-oxadiazol-2-yl]-1,1-dioxo-5-[[4-(trifluoromethoxy)phenyl]methyl]-2,3-dihydro-1λ^6,5-benzothiazepin-4-one], in assay [1] (Homo sapiens, T-cell, 120 h), the Emax was found to be 62% and the pEC50 was 5.14. For the same molecule, the pEC50 in assay [2] is 5.82.

Take `Cc1cc2c(cc1-c1nnc(C(C)(C)C#N)o1)N(Cc1ccc(Cl)cc1)C(=O)[C@@H](N)CS2(=O)=O` [Example 276, 2-[5-[(3R)-3-amino-5-[(4-chlorophenyl)methyl]-8-methyl-1,1,4-trioxo-2,3-dihydro-1λ^6,5-benzothiazepin-7-yl]-1,3,4-oxadiazol-2-yl]-2-methyl-propanenitrile]: in assay [1] (Homo sapiens, T-cell, 120 h), the Emax is 96% and the pEC50 was 5.56. In assay [2], this molecule had a pEC50 of 5.97.

Consider `N[C@H]1CS(=O)(=O)c2ccc(-c3nnc(C4(N)CCCC4)o3)cc2N(Cc2ccc(OC(F)(F)F)cc2)C1=O` [Example 414, (3R)-3-amino-7-[5-(1-aminocyclopentyl)-1,3,4-oxadiazol-2-yl]-1,1-dioxo-5-[[4-(trifluoromethoxy)phenyl]methyl]-2,3-dihydro-1λ^6,5-benzothiazepin-4-one], for which, in assay [1] (Homo sapiens, T-cell, 120 h), the Emax was 83% and the pEC50 is 5.59. In assay [2], the pEC50 is 5.36.

`NC(c1nnc(-c2cc3c(cc2F)S(=O)(=O)C[C@H](N)C(=O)N3Cc2ccc(OC(F)(F)F)cc2)o1)C(F)(F)F` (stereo partly drawn) [Example 58, (3R)-3-amino-7-[5-(1-amino-2,2,2-trifluoro-ethyl)-1,3,4-oxadiazol-2-yl]-8-fluoro-1,1-dioxo-5-[[4-(trifluoromethoxy)phenyl]methyl]-2,3-dihydro-1λ^6,5-benzothiazepin-4-one]: in assay [1] (Homo sapiens, T-cell, 120 h), the Emax came to 126% and the pEC50 is 6.16. Also, the pEC50 in assay [2] is 6.66.

Take `N[C@H]1CS(=O)(=O)c2cc(F)c(-c3nnc(CC(F)F)o3)cc2N(Cc2ccc(Cl)cc2)C1=O` [Example 71, (3R)-3-Amino-5-[(4-chlorophenyl)methyl]-7-[5-(2,2-difluoroethyl)-1,3,4-oxadiazol-2-yl]-8-fluoro-1,1-dioxo-2,3-dihydro-1λ^6,5-benzothiazepin-4-one]: in assay [1] (Homo sapiens, T-cell, 120 h), the Emax came out at 71%. The pEC50 in assay [1] (Homo sapiens, T-cell, 120 h) was above 6.79; in assay [2] it was below 4.70.

As for `Cc1cc2c(cc1-c1nnc(C(C)C#N)o1)N(Cc1ccc(Cl)cc1)C(=O)[C@@H](N)CS2(=O)=O` (stereo partly drawn) [Example 277, 2-[5-[(3R)-3-amino-5-[(4-chlorophenyl)methyl]-8-methyl-1,1,4-trioxo-2,3-dihydro-1λ^6,5-benzothiazepin-7-yl]-1,3,4-oxadiazol-2-yl]propanenitrile], in assay [1] (Homo sapiens, T-cell, 120 h), the Emax worked out at 59% and the pEC50 was 5.09. The molecule also showed a pEC50 in assay [2] of 5.16.

`N[C@H]1CS(=O)(=O)c2cc(F)c(-c3noc(C(F)C(F)(F)F)n3)cc2N(Cc2ccc(Cl)cc2)C1=O` (stereo partly drawn) [Example 296, (3R)-3-amino-5-[(4-chlorophenyl)methyl]-8-fluoro-1,1-dioxo-7-[5-(1,2,2,2-tetrafluoroethyl)-1,2,4-oxadiazol-3-yl]-2,3-dihydro-1λ^6,5-benzothiazepin-4-one]: the Emax in assay [1] (Homo sapiens, T-cell, 120 h) was determined as 66%. The pEC50 is 6.16 in assay [1] (Homo sapiens, T-cell, 120 h) and 6.15 in assay [2].

For the molecule `CS(=O)(=O)N1CCC2CC2(c2nnc(-c3cc4c(cc3F)S(=O)(=O)C[C@H](N)C(=O)N4Cc3ccc(Cl)cc3)o2)C1` (stereo partly drawn) [Example 179, (3R)-3-amino-5-[(4-chlorophenyl)methyl]-8-fluoro-7-[5-(3-methylsulfonyl-3-azabicyclo[4.1.0]heptan-1-yl)-1,3,4-oxadiazol-2-yl]-1,1-dioxo-2,3-dihydro-1λ^6,5-benzothiazepin-4-one], in assay [1] (Homo sapiens, T-cell, 120 h), the Emax was 80% and the pEC50 was 5.80. The molecule further had a pEC50 in assay [2] of 6.48.

`CC(C)(C)c1cc(-c2cc3c(cc2F)S(=O)(=O)C[C@H](N)C(=O)N3Cc2ccc(Cl)cc2)on1` [Example 52, (3R)-3-amino-7-(3-tert-butylisoxazol-5-yl)-5-[(4-chlorophenyl)methyl]-8-fluoro-1,1-dioxo-2,3-dihydro-1λ^6,5-benzothiazepin-4-one]: in assay [1] (Homo sapiens, T-cell, 120 h), the Emax is 133% and the pEC50 was 5.96. Further, the pEC50 in assay [2] is 6.01.

In the case of `C#CCOCCOCCCC(C)(C)Nc1nc(-c2cc3c(cc2F)S(=O)(=O)C[C@H](N)C(=O)N3Cc2ccc(Cl)cc2)no1` [Example 203, (3R)-3-amino-5-[(4-chlorophenyl)methyl]-7-[5-[[1,1-dimethyl-4-(2-prop-2-ynoxyethoxy)butyl]amino]-1,2,4-oxadiazol-3-yl]-8-fluoro-1,1-dioxo-2,3-dihydro-1λ^6,5-benzothiazepin-4-one], in assay [1] (Homo sapiens, T-cell, 120 h), the Emax was 99% and the pEC50 is 6.63. The pEC50 in assay [2] is 5.80.
